# Data as given in PubChem BioAssay AID1996.
# Conditions: buffer; pH 7.4; 200.0 µM
row,Structure (SMILES),solubility kinetic
1,O=C(Nc1nccs1)c1cc2cc(Cl)ccc2oc1=O,1.5 µg/mL
2,O=C(NCCC1CC1(Cl)Cl)c1ccc([N+](=O)[O-])cc1 (stereo unspecified),36.9 µg/mL
3,O=C1NC2(CCCCCC2)C(=O)N1Cc1ccccc1Br,17.1 µg/mL
4,Cc1c(NC(=O)c2ccc3nsnc3c2)cccc1[N+](=O)[O-],2.3 µg/mL
5,Cc1nc(-c2ccccc2)sc1C(=O)NN,> 35 µg/mL
6,O=C(OCC(=O)N1CCOCC1)c1ccccc1Br,> 49.2 µg/mL
7,NC(=O)COC(=O)c1ccc2c(c1)C(=O)N(Cc1ccco1)C2=O,> 49.2 µg/mL
8,Cc1nc(CC(=O)Nc2nccs2)cs1,> 35.9 µg/mL
9,Cc1ccc(CC(=O)Nc2cc(C)on2)cc1,14 µg/mL
10,CCOc1cccc(CN2CCN(Cc3ccc(C)o3)C(CCO)C2)c1O (stereo unspecified),> 56.2 µg/mL
11,O=C(C1CCC1)N1CCN(c2ccccc2)CC1,35.6 µg/mL
12,C=CCn1cc(C(=O)OCC)c(=O)c2ccc(F)cc21,40.2 µg/mL
13,O=S(=O)(Nc1ccc(Cl)cn1)c1ccc(F)cc1,> 43 µg/mL
14,Cc1cccc(C)c1NC(=O)CN1C(=O)NC(C)(C2CC2)C1=O (stereo unspecified),> 47.3 µg/mL
15,O=C(c1cc(-c2cccc(Cl)c2)on1)N1CCCCCC1,14 µg/mL
16,COc1ccccc1C(=O)CN1C(=O)NC2(CCCc3ccccc32)C1=O (stereo unspecified),8.4 µg/mL
17,O=C(COC(=O)CNC(=O)c1ccccc1)NC(=O)NC1CCCCC1,> 54.2 µg/mL
18,CC(C)c1ccc(CNC(=O)C(=O)NCCCn2ccnc2)cc1,45.4 µg/mL
19,CC1=C(C(=O)OCCC(C)C)C(c2ccc3c(c2)OCO3)NC(=O)N1 (stereo unspecified),6.2 µg/mL
20,Cc1cccc(N2CCN(C(=O)CNC(=O)Cc3ccccc3)CC2)c1C,> 54.8 µg/mL
21,CSC1=NC2(CCCCC2)CC12C=CC(=O)C=C2,36.2 µg/mL

row,Structure (SMILES),solubility kinetic
1,NS(=O)(=O)c1ccc(NC(=O)COC(=O)C2CC2)cc1,> 44.7 µg/mL
2,CCOc1ccc(NC(=S)N(C)C)cc1,> 33.6 µg/mL
3,Cc1ccccc1NC(=S)N(Cc1cccs1)C1CCCC1,13.3 µg/mL
4,CC(C)[C@H](NC(=O)c1ccccc1F)C(=O)Nc1ccc(F)c(F)c1,4.9 µg/mL
5,CC(C)N1CC(C(=O)Nc2cccc([N+](=O)[O-])c2)CC1=O (stereo unspecified),> 43.7 µg/mL
6,COc1ccc(C(=O)c2sc(Nc3ccccc3)nc2N)cc1OC,0.6 µg/mL
7,O=C(CC12CC3CC(CC(C3)C1)C2)NCc1ccc(F)cc1,< 0.6 µg/mL
8,CCOc1ccc(N=Cc2c(O)n(Cc3ccccc3)c(=S)[nH]c2=O)cc1,0.5 µg/mL
9,CCn1ccc(C(=O)Nc2ncc(C)s2)n1,> 35.4 µg/mL
10,CC(C)Oc1ncnc2c1[nH]c1ccccc12,12.5 µg/mL
11,COc1ccc(N2CCN(C(=O)NC(=O)c3ccccc3)CC2)cc1,38.7 µg/mL
12,O=C(CNC(=O)C1CCCCC1)NCc1ccco1,> 39.6 µg/mL
13,CNc1nc(NCc2ccccc2)nc(N)c1[N+](=O)[O-],2.8 µg/mL
14,Cc1nc2ccccc2cc1C(=O)N(C)Cc1ccccc1,43 µg/mL
15,CC(C)CNP(=S)(c1ccccc1)C(C)(C)C (stereo unspecified),1.7 µg/mL
16,COc1ccc(/C=C/C(=O)ONC2=NCCCCC2)cc1OC,> 47.8 µg/mL
17,CSc1nc(-c2ccccc2)cc(C)c1C#N,< 0.3 µg/mL
18,CCn1c(SC(C)C(=O)NCC2CCCO2)nc2ccccc21 (stereo unspecified),49.9 µg/mL
19,O=C(C1CCCCCC1)N1CC[C@@H](N2CCC(O)CC2)[C@H](O)C1,> 48.7 µg/mL
20,Cc1cc(C)cc(N(CC(=O)N2CCCC2)S(C)(=O)=O)c1,> 46.6 µg/mL
21,O=C(CCCCC(=O)Nc1c(I)cc(I)c(C(=O)O)c1I)Nc1c(I)cc(I)c(C(=O)O)c1I,> 171 µg/mL

row,Structure (SMILES),solubility kinetic
1,Nc1nc(CCl)nc(Nc2cccc3ccccc23)n1,41 µg/mL
2,Cc1cc(NC(=O)CN2C(=O)NC(C)(c3ccc(Cl)cc3Cl)C2=O)no1 (stereo unspecified),7.4 µg/mL
3,C=CCNC(=O)C1CCC(=O)N1S(=O)(=O)c1ccc(C)cc1 (stereo unspecified),> 48.4 µg/mL
4,COc1cccc(NS(=O)(=O)c2ccc3c(c2)CCN3C(C)=O)c1,3.3 µg/mL
5,CC(=O)N1CCC2(CC1)NC(=O)N(c1ccccc1)N2,> 41.1 µg/mL
6,O=Cc1ccc(OCCN2CCCC2=O)cc1,> 35 µg/mL
7,CC(C)(C)C(=O)/C=C1\NC(=O)CS1,> 29.9 µg/mL
8,Cl.NC(N)=NC(N)=Nc1cccc(Cl)c1,> 37.2 µg/mL
9,O=C(c1ccco1)N1CCN(C(=S)NC2CC3CCC2C3)CC1 (stereo unspecified),46.8 µg/mL
10,O=[N+]([O-])c1ccccc1S(=O)(=O)N1CCCc2ccccc21,10.9 µg/mL
11,Cc1cc2ncc(S(=O)(=O)C(C)(C)C)c(N)n2n1,> 40.2 µg/mL
12,COc1ccc(N2CCN(C(=O)Cc3coc4cc(C)ccc34)CC2)cc1,25.9 µg/mL
13,CCOc1ccc(S(=O)(=O)/N=C(\N)c2ccccc2)cc1,> 45.7 µg/mL
14,Nc1nc(-c2ccc(F)cc2)cs1,> 29.1 µg/mL
15,C/C(=C\c1ccc(N)cc1)c1nc2ccccc2[nH]1,> 37.4 µg/mL
16,NC(=O)c1cc(Cl)ccc1OCC(=O)NC1CC1,> 40.3 µg/mL
17,CC(C)(C)c1ccc(OCC(=O)Nc2ccncc2)cc1,3.7 µg/mL
18,COc1cc(C=O)ccc1OCC(=O)Nc1ccc2c(c1)OCO2,7.6 µg/mL
19,Cc1ccc(OCC(=O)NCCCNC(=O)COc2ccc(C)cc2)cc1,15.1 µg/mL
